# Experimental data as given in ChEMBL document CHEMBL1122382, “An evaluation of certain chain-extended analogues of 9-beta-D-arabinofuranosyladenine for antiviral and cardiovascular activity” (1983).
# How the values were obtained:
# Canis familiaris [1] = experiment: Compound was evaluated for the cardiovascular activity, expressed as maximum percent response achieved with standard (administered intravenously at a dose of 0.10 mg/kg) at a dose of 1.0 mg/kg of compound; type: functional, Canis lupus familiaris, Heart
# Human alphaherpesvirus 1 [2] = experiment: Virus rating (VR) which is the weighted measurement of in vitro antiviral activity, based on the inhibition of virus-induced cytopathogenic effects. VR > 1, active.; type: functional
# Human alphaherpesvirus 1 [3] = experiment: Antiviral activity against herpes simplex virus type 1 (strain 377).; type: functional; conditions: read-out: ID50 (the source's name)
# Human alphaherpesvirus 1 [4] = experiment: Compound was evaluated for virus rating (VR) which is the weighted measurement of in vitro antiviral activity, based on the inhibition of HSV-1 virus-induced cytopathogenic effects. VR = 0.5-0.9 indicates marginal activity; type: functional
# Human alphaherpesvirus 1 [5] = experiment: Antiviral activity against herpes simplex virus type 1 (strain HF).; type: functional; conditions: read-out: ID50 (the source's name)
# Human alphaherpesvirus 1 [6] = experiment: Virus rating (VR) which is the weighted measurement of in vitro antiviral activity, based on the inhibition of HSV-1 virus-induced cytopathogenic effects. VR > 1, active.; type: functional
# [7] = Compound was evaluated for antiviral activity of the compound, expressed as ID50 for the inhibition of cellular DNA and protein synthesis in wild-type cells; type: functional; conditions: read-out: ID50 (the source's name)
# Ara-A [8] = experiment: Compound was evaluated for antiviral activity of the compound, expressed as ID50 for the inhibition of cellular DNA and protein synthesis in ara-A resistant cells; type: functional; conditions: Homo sapiens; read-out: ID50 (the source's name)
# [9] = Compound was evaluated for in vitro therapeutic index ratio of the ID50 for inhibition of cellular DNA and protein synthesis to the ID50 for inhibition of virus replication; type: functional
# Canis familiaris [10] = experiment: Compound was evaluated for the cardiovascular activity, expressed as maximum % response achieved with standard (administered intravenously at a dose of 0.10 mg/kg) at a dose of 1.0 mg/kg of the compound; type: functional, Canis lupus familiaris, Heart
# Human alphaherpesvirus 1 [11] = experiment: Compound was evaluated for virus rating (VR) which is the weighted measurement of in vitro antiviral activity, based on the inhibition of HSV-1 virus-induced cytopathogenic effects. VR > 1, active; type: functional
# [12] = Compound was evaluated for antiviral activity expressed as ID50 for the inhibition of cellular DNA and protein synthesis in wild-type cells; type: functional; conditions: read-out: ID50 (the source's name)
# Ara-A [13] = experiment: Compound was evaluated for antiviral activity expressed as ID50 for the inhibition of cellular DNA and protein synthesis in ara-A resistant cells; type: functional; conditions: Homo sapiens; read-out: ID50 (the source's name)
SMILES,VR (Human alphaherpesvirus 1 [2]),IC50 (Human alphaherpesvirus 1 [3]) [µM],IC50 (Human alphaherpesvirus 1 [5]) [µM],Ratio [9],other results
NC(=O)CC[C@H]1OC(n2cnc3c(N)ncnc32)[C@@H](O)[C@@H]1O (some centres undefined),1.6,574,,,Response (Canis familiaris [1]): 10%
Nc1ncnc2c1ncn2C1O[C@H](CCC(=O)O)[C@@H](O)[C@@H]1O (some centres undefined),,,,,VR (Human alphaherpesvirus 1 [4]): 0.3
Nc1ncnc2c1ncn2C1O[C@H](CCCO)[C@@H](O)[C@@H]1O (some centres undefined),,643,525,2.1,VR (Human alphaherpesvirus 1 [6]): 1.5; IC50 [7]: 1880 µM; IC50 (Ara-A [8]): 1510 µM
CCOC(=O)CC[C@H]1OC(n2cnc3c(N)ncnc32)[C@@H](O)[C@@H]1O (some centres undefined),,729,,,Response (Canis familiaris [10]): 39%; VR (Human alphaherpesvirus 1 [11]): 1
Nc1ncnc2c1ncn2[C@@H]1O[C@H](CO)[C@@H](O)[C@H]1O [ADENOSINE],2.5,22,42,3.1,IC50 [12]: 2.4 µM; IC50 (Ara-A [13]): 242 µM
